Data from PubChem BioAssay AID270 (DTP/NCI, 2004).
Where “and” joins values, the source holds several entries; their conditions need not be identical. Equal entries are not always repeated. Inconclusive results are not listed.

Test system: BDF1 mice, s.c. Lewis lung carcinoma, T/C %
Experiment: NCI In Vivo Anticancer Drug Screen. Data for tumor model Lewis Lung Carcinoma (subcutaneous) in B6D2F1 (BDF1) mice
Procedure: The antitumor activity of compounds was measured in mice bearing transplantable tumors. Survival or tumor size were measured and the results are expressed as the measurement made in the treated group (T) divided by the measurement made in the vehicle treated control group (C). The tumor model used in this assay is Lewis Lung Carcinoma (subcutaneous) in B6D2F1 (BDF1) mice

CC[C@]1(O)C[C@H](OC2CC(N(C)C)C(OC3CC(O)C(O)C(C)O3)C(C)O2)c2c(cc3c(c2O)C(=O)c2c(O)ccc(O)c2C3=O)[C@H]1C(=O)OC (stereo partly specified)
T/C (endpoint: median survival time, dose: 0.25 mg/kg/injection, schedule: Q01DX009 (ip), vehicle: saline with Tween-80, higher = longer survival): 118 % of control | T/C (endpoint: median survival time, dose: 0.5 mg/kg/injection, schedule: Q01DX009 (ip), vehicle: saline with Tween-80, higher = longer survival): 110 % of control | T/C (endpoint: median survival time, dose: 1.0 mg/kg/injection, schedule: Q01DX009 (ip), vehicle: saline with Tween-80, higher = longer survival): 123 % of control | T/C (endpoint: median survival time, dose: 2.0 mg/kg/injection, schedule: Q01DX009 (ip), vehicle: saline with Tween-80, higher = longer survival): 110 % of control

COc1cc2c[n+](C)c3c4cc5c(cc4ccc3c2cc1OC)OCO5 (tested in a mixture with another compound)
T/C (endpoint: median survival time, dose: 5.0 mg/kg/injection, schedule: Q01DX009 (ip), vehicle: saline, higher = longer survival): 92 % of control | T/C (endpoint: median survival time, dose: 10.0 mg/kg/injection, schedule: Q01DX009 (ip), vehicle: saline, higher = longer survival): 96 % of control | T/C (endpoint: median survival time, dose: 20.0 mg/kg/injection, schedule: Q01DX009 (ip), vehicle: saline, higher = longer survival): 86 % of control

CCCn1cnc2c(SCc3ccccc3Cl)nc(N)nc21
T/C (endpoint: mean tumor weight, dose: 25.0 mg/kg/injection, schedule: Q01DX011 (ip), vehicle: other, higher = larger tumour): 66 % of control | T/C (endpoint: mean tumor weight, dose: 50.0 mg/kg/injection, schedule: Q01DX011 (ip), vehicle: other, higher = larger tumour): 102 % of control | T/C (endpoint: mean tumor weight, dose: 100.0 mg/kg/injection, schedule: Q01DX011 (ip), vehicle: other, higher = larger tumour): 89 % of control | T/C (endpoint: mean tumor weight, dose: 200.0 mg/kg/injection, schedule: Q01DX011 (ip), vehicle: other, higher = larger tumour): 65 % of control

O=NN(CCCl)C(=O)Nc1ccc2[nH]c3ccccc3c2c1
T/C (endpoint: median survival time, dose: 4.0 mg/kg/injection, schedule: Q01DX009 (ip), vehicle: Klucel (hydroxypropylcellulose) (HPC), higher = longer survival): 119 % of control | T/C (endpoint: median survival time, dose: 8.12 mg/kg/injection, schedule: Q01DX009 (ip), vehicle: Klucel (hydroxypropylcellulose) (HPC), higher = longer survival): 110 % of control | T/C (endpoint: median survival time, dose: 32.5 mg/kg/injection, schedule: Q01DX009 (ip), vehicle: Klucel (hydroxypropylcellulose) (HPC), higher = longer survival): 97 % of control

O=P(N1CC1)(N1CC1)N1CC1
T/C (endpoint: mean tumor weight, dose: 0.2 mg/kg/injection, schedule: Q01DX011 (ip), vehicle: other, higher = larger tumour): 90 % of control | T/C (endpoint: mean tumor weight, dose: 0.4 mg/kg/injection, schedule: Q01DX011 (ip), vehicle: other, higher = larger tumour): 62 % of control | T/C (endpoint: mean tumor weight, dose: 0.8 mg/kg/injection, schedule: Q01DX011 (ip), vehicle: other, higher = larger tumour): 58 % of control and 69 % of control | T/C (endpoint: mean tumor weight, dose: 1.3 mg/kg/injection, schedule: Q01DX011 (ip), vehicle: other, higher = larger tumour): 37 % of control and 45 % of control and 62 % of control | T/C (endpoint: mean tumor weight, dose: 2.0 mg/kg/injection, schedule: Q01DX011 (ip), vehicle: other, higher = larger tumour): 70 % of control

C[C@]1(O)CC[C@H]2[C@@H]3CCC4=CC(=O)CC[C@]4(C)[C@@]3(F)[C@@H](O)C[C@@]21C
T/C (endpoint: median survival time, dose: 12.5 mg/kg/injection, schedule: Q02DX009 (ip), vehicle: Klucel (hydroxypropylcellulose) (HPC), higher = longer survival): 103 % of control | T/C (endpoint: median survival time, dose: 25.0 mg/kg/injection, schedule: Q02DX009 (ip), vehicle: Klucel (hydroxypropylcellulose) (HPC), higher = longer survival): 93 % of control | T/C (endpoint: median survival time, dose: 50.0 mg/kg/injection, schedule: Q02DX009 (ip), vehicle: Klucel (hydroxypropylcellulose) (HPC), higher = longer survival): 87 % of control | T/C (endpoint: median survival time, dose: 100.0 mg/kg/injection, schedule: Q02DX009 (ip), vehicle: Klucel (hydroxypropylcellulose) (HPC), higher = longer survival): 109 % of control | T/C (endpoint: median survival time, dose: 200.0 mg/kg/injection, schedule: Q02DX009 (ip), vehicle: Klucel (hydroxypropylcellulose) (HPC), higher = longer survival): 103 % of control | T/C (endpoint: median survival time, dose: 400.0 mg/kg/injection, schedule: Q02DX009 (ip), vehicle: Klucel (hydroxypropylcellulose) (HPC), higher = longer survival): 96 % of control

O=NN(CCCl)C(=O)Nc1ccc(CCO)cc1
T/C (endpoint: mean tumor weight, dose: 10.0 mg/kg/injection, schedule: Q01DX001 (ip), vehicle: carboxymethylcellulose (CMC), higher = larger tumour): 43 % of control | T/C (endpoint: mean tumor weight, dose: 20.0 mg/kg/injection, schedule: Q01DX001 (ip), vehicle: carboxymethylcellulose (CMC), higher = larger tumour): 22 % of control

CC1CN1c1nc(N2CC2C)nc(N2CC2C)n1 (stereo unspecified)
T/C (endpoint: median survival time, dose: 1.0 mg/kg/injection, schedule: Q01DX009 (ip), vehicle: saline, higher = longer survival): 106 % of control | T/C (endpoint: median survival time, dose: 2.0 mg/kg/injection, schedule: Q01DX009 (ip), vehicle: saline, higher = longer survival): 86 % of control | T/C (endpoint: median survival time, dose: 4.0 mg/kg/injection, schedule: Q01DX009 (ip), vehicle: saline, higher = longer survival): 105 % of control | T/C (endpoint: median survival time, dose: 8.0 mg/kg/injection, schedule: Q01DX009 (ip), vehicle: saline, higher = longer survival): 105 % of control

c1ccc([As+](c2ccccc2)(c2ccccc2)c2ccccc2)cc1
T/C (endpoint: median survival time, dose: 1.87 mg/kg/injection, schedule: Q01DX009 (ip), vehicle: Klucel (hydroxypropylcellulose) (HPC), higher = longer survival): 97 % of control | T/C (endpoint: median survival time, dose: 3.75 mg/kg/injection, schedule: Q01DX009 (ip), vehicle: Klucel (hydroxypropylcellulose) (HPC), higher = longer survival): 95 % of control

Nc1ncnc2c1ccn2C1OC(CO)C(O)C1O (stereo unspecified)
T/C (endpoint: mean tumor weight, dose: 0.32 mg/kg/injection, schedule: Q01DX011 (ip), vehicle: saline, higher = larger tumour): 77 % of control | T/C (endpoint: mean tumor weight, dose: 0.63 mg/kg/injection, schedule: Q01DX011 (ip), vehicle: saline, higher = larger tumour): 60 % of control | T/C (endpoint: mean tumor weight, dose: 1.25 mg/kg/injection, schedule: Q01DX011 (ip), vehicle: saline, higher = larger tumour): 84 % of control | T/C (endpoint: median survival time, dose: 0.25 mg/kg/injection, schedule: Q01DX011 (ip), vehicle: other, higher = longer survival): 98 % of control | T/C (endpoint: median survival time, dose: 0.5 mg/kg/injection, schedule: Q01DX011 (ip), vehicle: other, higher = longer survival): 89 % of control | T/C (endpoint: median survival time, dose: 1.0 mg/kg/injection, schedule: Q01DX011 (ip), vehicle: other, higher = longer survival): 110 % of control | T/C (endpoint: median survival time, dose: 2.0 mg/kg/injection, schedule: Q01DX011 (ip), vehicle: other, higher = longer survival): 101 % of control

O=NN(CCF)C(=O)NC1CCSc2ccccc21 (stereo unspecified)
T/C (endpoint: median survival time, dose: 24.0 mg/kg/injection, schedule: Q01DX001 (ip), vehicle: saline with Tween-80, higher = longer survival): 88 % of control

O=C1OC(C(O)CO)C(O)=C1O (stereo unspecified)
T/C (endpoint: median survival time, dose: 1.0 mg/kg/injection, schedule: Q02DX009 (ip), vehicle: saline, higher = longer survival): 113 % of control | T/C (endpoint: median survival time, dose: 1000.0 mg/kg/injection, schedule: Q02DX009 (ip), vehicle: saline, higher = longer survival): 87 % of control | T/C (endpoint: median survival time, dose: 10000.0 mg/kg/injection, schedule: Q02DX009 (ip), vehicle: saline, higher = longer survival): 10 % of control

COc1cc2c(c(OC)c1OC)-c1ccc(OC)c(=O)cc1[C@@H](NC(=O)CF)CC2
T/C (endpoint: median survival time, dose: 0.04 mg/kg/injection, schedule: Q01DX009 (ip), vehicle: saline with Tween-80, higher = longer survival): 100 % of control | T/C (endpoint: median survival time, dose: 0.09 mg/kg/injection, schedule: Q01DX009 (ip), vehicle: saline with Tween-80, higher = longer survival): 95 % of control | T/C (endpoint: median survival time, dose: 0.18 mg/kg/injection, schedule: Q01DX009 (ip), vehicle: saline with Tween-80, higher = longer survival): 95 % of control

CS(C)=O
T/C (endpoint: mean tumor weight, dose: 250.0 mg/kg/injection, schedule: Q01DX011 (ip), vehicle: carboxymethylcellulose (CMC), higher = larger tumour): 68 % of control | T/C (endpoint: mean tumor weight, dose: 500.0 mg/kg/injection, schedule: Q01DX011 (ip), vehicle: carboxymethylcellulose (CMC), higher = larger tumour): 117 % of control | T/C (endpoint: mean tumor weight, dose: 1000.0 mg/kg/injection, schedule: Q01DX011 (ip), vehicle: carboxymethylcellulose (CMC), higher = larger tumour): 86 % of control | T/C (endpoint: mean tumor weight, dose: 2000.0 mg/kg/injection, schedule: Q01DX011 (ip), vehicle: carboxymethylcellulose (CMC), higher = larger tumour): 57 % of control | T/C (endpoint: median survival time, dose: 3.0 grams/kg/injection, schedule: Q01DX009 (ip), vehicle: saline, higher = longer survival): 101 % of control | T/C (endpoint: median survival time, dose: 6.0 grams/kg/injection, schedule: Q01DX009 (ip), vehicle: saline, higher = longer survival): 93 % of control

O=NN(CCCl)C(=O)NC(CCC(=O)O)C(=O)O (stereo unspecified)
T/C (endpoint: median survival time, dose: 81.0 mg/kg/injection, schedule: Q01DX001 (ip), vehicle: saline with Tween-80, higher = longer survival): 99 % of control | T/C (endpoint: median survival time, dose: 122.0 mg/kg/injection, schedule: Q01DX001 (ip), vehicle: saline with Tween-80, higher = longer survival): 95 % of control | T/C (endpoint: median survival time, dose: 183.0 mg/kg/injection, schedule: Q01DX001 (ip), vehicle: saline with Tween-80, higher = longer survival): 157 % of control | T/C (endpoint: median survival time, dose: 184.0 mg/kg/injection, schedule: Q01DX001 (ip), vehicle: saline with Tween-80, higher = longer survival): 117 % of control | T/C (endpoint: median survival time, dose: 275.0 mg/kg/injection, schedule: Q01DX001 (ip), vehicle: saline with Tween-80, higher = longer survival): 107 % of control

C[C@@H](N)[C@@H](O)c1ccccc1
T/C (endpoint: mean tumor weight, dose: 3.13 mg/kg/injection, schedule: Q01DX011 (ip), vehicle: saline, higher = larger tumour): 91 % of control | T/C (endpoint: mean tumor weight, dose: 6.25 mg/kg/injection, schedule: Q01DX011 (ip), vehicle: saline, higher = larger tumour): 67 % of control | T/C (endpoint: mean tumor weight, dose: 12.5 mg/kg/injection, schedule: Q01DX011 (ip), vehicle: saline, higher = larger tumour): 45 % of control
